Structures can show the parent of a compound that is named as a salt.
Target: T1, human recombinant KDM1A (LSD1)/CoRest (Homo sapiens, UniProt O60341)
T1 construct: made in house; host or cells: E. coli
Assay: Assay of enzyme inhibition of KDM1A (LSD1), Amplex UltraRed/peroxidase coupled
Type: biochemical
Conditions: 15 min preincubation, 4.5 μM mono-methylated H3-K4 peptide, range classes, read-out: IC50 [μM], KDM1A inhibition assay
Procedure: The experiments were performed using a mono-methylated H3-K4 peptide containing 21 amino acids (custom synthesis done by Thermo Scientific) as substrate and in a 50 mM TRIS, pH 8, 0.05 mg/ml BSA buffer.
The demethylase activity was estimated under aerobic conditions and at RT by measuring the release of H2O2 produced during the catalytic process by the Amplex® UltraRed detection system coupled with peroxidase assay. Briefly, a fixed amount of KDM1A/CoRest complex was incubated at RT for 15 minutes in the absence and/or the presence of various concentrations of inhibitor (e.g. from 0 to 100 μM, depending on the inhibitor strength) and of Amplex® UltraRed detection system coupled with peroxidase assay. The inhibitors were tested twice in duplicates at each concentration. […] The conversion of the Amplex® Ultra Red reagent to resorufin was monitored in continuous by fluorescence (excitation at 540 nm, emission at 590 nm) using a microplate reader (Infinite 200, Tecan). Arbitrary units were used to measure the level of H2O2 produced in the absence and/or in the presence of inhibition. The maximum demethylase activity of KDM1A/CoRest was obtained in the absence of inhibitors and corrected for background fluorescence in the absence of KDM1A/CoRest. The IC50 was calculated using GraphPad Software.

Compared with `CC[C@@]1(N)C[C@H]1c1ccc(NC(=O)c2ccc(N3CCN(C)CC3)cc2)c(F)c1` (relative stereo) [Example A-96, N-[4-[trans-2-amino-2-ethyl-cyclopropyl]-2-fluoro-phenyl]-4-(4-methylpiperazin-1-yl)benzamide 2,2,2-trifluoroacetic acid], `CN1CCN(c2ccc(C(=O)Nc3ccc([C@@H]4C[C@]4(N)c4ccccc4)cc3)cc2)CC1` (relative stereo) [Example A-110, N-[4-(trans-2-amino-2-phenyl-cyclopropyl)phenyl]-4-(4-methylpiperazin-1-yl)benzamide hydrochloride] is lower in IC50: 0.1 to 1 µM for the first, < 0.1 µM for the second. The second is the more potent here.

`CC[C@@]1(N)C[C@H]1c1ccc(NC(=O)c2ccc(C3CCN(C)CC3)cc2)cc1` (relative stereo) [Example A-100, N-[4-[trans-2-amino-2-ethyl-cyclopropyl]phenyl]-4-(1-methyl-4-piperidyl)benzamide 2,2,2-trifluoroacetic acid] and `CN1CCC(c2ccc(C(=O)Nc3ccc([C@@H]4C[C@]4(N)c4ccccc4)cc3)cc2)CC1` (relative stereo) [Example A-109, N-[4-(trans-2-amino-2-phenyl-cyclopropyl]phenyl)-4-(1-methyl-4-piperidyl) benzamide dihydrochloride] cannot be ordered by IC50: < 0.1 µM for the first, < 0.1 µM for the second.

`CC[C@@]1(N)C[C@H]1c1ccc(NC(=O)c2ccc(-c3ccncc3)cc2)cc1` (relative stereo) [Example A-102, N-[4-(trans-2-amino-2-ethyl-cyclopropyl]phenyl)-4-(4-pyridyl) benzamide dihydrochloride] and `N[C@]1(CCc2ccccc2)C[C@H]1c1ccc(NC(=O)c2ccncc2)cc1` (relative stereo) [Example A-112, N-[4-(trans-2-amino-2-phenethyl-cyclopropyl)phenyl] pyridine-4-carboxamide hydrochloride] cannot be ordered by IC50: < 0.1 µM for the first, < 0.1 µM for the second.

`N[C@]1(c2ccccc2)C[C@H]1c1ccc(NC(=O)c2cccc(Cl)c2)cc1` (relative stereo) [Example A-103, N-[4-(trans-2-amino-2-phenyl-cyclopropyl]phenyl]-3-chloro-benzamide hydrochloride] and `N[C@]1(c2ccccc2)C[C@H]1c1ccc(NC(=O)c2ccncc2)cc1` (relative stereo) [Example A-108, N-[4-(trans-2-amino-2-phenyl-ccyclopropyl)phenyl] pyridine-4-carboxamide dihydrochloride] cannot be ordered by IC50: < 0.1 µM for the first, < 0.1 µM for the second.

`N[C@]1(c2ccccc2)C[C@H]1c1ccc(NC(=O)Cc2cccc3ccccc23)cc1` (relative stereo) [Example A-104, N-[4-(trans-2-amino-2-phenyl-cyclopropyl)phenyl]-2-(1-naphthyl) acetamide hydrochloride] and `N[C@]1(c2ccccc2)C[C@H]1c1ccc(NC(=O)Cc2ccc3ccccc3c2)cc1` (relative stereo) [Example A-107, N-[4-(trans-2-amino-2-phenyl-cyclopropyl)phenyl]-2-(2-naphthyl) acetamide 2,2,2-trifluoroacetic acid] cannot be ordered by IC50: < 0.1 µM for the first, < 0.1 µM for the second.

`N[C@]1(c2ccccc2)C[C@H]1c1ccc(NC(=O)Cc2ccccc2)cc1` (relative stereo) [Example A-105, N-[4-(trans-2-amino-2-phenyl-cyclopropyl)phenyl]-2-phenyl-acetamide hydrochloride] and `N[C@]1(c2ccccc2)C[C@H]1c1ccc(NC(=O)c2cccc(-c3ccccc3)c2)cc1` (relative stereo) [Example A-106, N-[4-(trans-2-amino-2-phenyl-cyclopropyl)phenyl]-3-phenyl-benzamide 2,2,2-trifluoroacetic acid] cannot be ordered by IC50: < 0.1 µM for the first, < 0.1 µM for the second.

Compared with `N[C@]1(c2ccccc2)C[C@H]1c1ccc(NC(=O)c2cccc(N3CCOC3=O)c2)cc1` (relative stereo) [Example A-111, N-[4-(trans-2-amino-2-phenyl-cyclopropyl)phenyl]-3-(2-oxooxazolidin-3-yl)benzamide hydrochloride], `CC[C@@]1(N)C[C@H]1c1cccc(N2CCN(c3ccccc3)C2=O)c1` (relative stereo) [Example A-130, 1-[3-[(trans-2-amino-2-ethyl-cyclopropyl]phenyl]-3-phenyl-imidazolidin-2-one hydrochloride] is higher in IC50: < 0.1 µM for the first, 0.1 to 1 µM for the second. The first is the more potent here.

First: CC[C@@]1(N)C[C@H]1c1ccc(NC(=O)c2ccc(NCCO)cc2)cc1 (relative stereo) [Example A-120, N-[4-(trans-2-amino-2-ethyl-cyclopropyl]phenyl)-4-(2-hydroxyethylamino)benzamide hydrochloride]
Second: CC[C@@]1(N)C[C@H]1c1ccc(-n2cc(-c3ccccc3)nn2)cc1 (relative stereo) [Example A-131, trans-1-Ethyl-2-[4-(4-phenyltriazol-1-yl)phenyl]cyclopropanamine hydrochloride]
The IC50 of the first is higher: 0.1 to 1 µM for the first, < 0.1 µM for the second. The second is the more potent here.

First: CC[C@@]1(N)C[C@H]1c1ccccc1-n1cc(-c2ccccc2)nn1 (relative stereo) [Example A-125, trans 1-ethyl-2-[2-(4-phenyltriazol-1-yl)phenyl]cyclopropan amine hydrochloride]
Second: CC[C@@]1(NCc2ccccc2)C[C@H]1c1ccccc1 (relative stereo) [Example C-13, trans-N-benzyl-1-ethyl-2-phenyl-cyclopropanamine hydrochloride]
The IC50 of the first is lower: 0.1 to 1 µM for the first, 1 to 5 µM for the second. The first is the more potent here.

First: COc1cccc([C@@H]2C[C@]2(N)Cc2ccccc2)c1 (relative stereo) [Example A-129, trans 1-Benzyl-2-(3-methoxyphenyl)cyclopropanamine hydrochloride]
Second: COc1ncccc1CN[C@]1(C)C[C@H]1c1ccccc1 (relative stereo) [Example C-20, trans-N-[(2-methoxy-3-pyridyl)methyl]-1-methyl-2-phenyl-cyclopropanamine]
The IC50 of the first is lower: 0.1 to 1 µM for the first, 1 to 5 µM for the second. The first is the more potent here.

`N[C@]1(CNC2CC2)C[C@H]1c1ccccc1` (relative stereo) [Example B-4, trans 1-[(cyclopropylamino)methyl]-2-phenyl-cyclopropanamine dihydrochloride] and `CN1CCN(C[C@@]2(N)C[C@H]2c2ccccc2)CC1` (relative stereo) [Example B-5, trans-1-[(4-methylpiperazine-1-yl)methyl]-2-phenyl-cyclopropanamine trihydrochloride] fall in the same range of IC50: 1 to 5 µM for the first, 1 to 5 µM for the second.

`CC[C@@]1(NCC(=O)N2CCN(C)CC2)C[C@H]1c1ccccc1` (relative stereo) [Example C-6, trans-2-[[(1-ethyl-2-phenyl-cyclopropyl]amino]-1-(1-methylpiperazin-1-yl)ethanone trifluoroacetate] and `CN1CCN(C(=O)CN[C@]2(c3ccccc3)C[C@H]2c2ccccc2)CC1` (relative stereo) [Example C-23, 2-[[trans-1,2-diphenylcyclopropyl]amino]-1-(4-methylpiperazin-1-yl)ethanone dihydrochloride] fall in the same range of IC50: 0.1 to 1 µM for the first, 0.1 to 1 µM for the second.

`C[C@@]1(NCc2cnc(N)nc2)C[C@H]1c1ccccc1` (relative stereo) [Example C-19, 5-{[(trans-1-methyl-2-phenyl-cyclopropyl)amino]methyl} pyrimidin-2-amine dihydrochloride] and `C[C@@]1(NCc2ccc3c(c2)OCCO3)C[C@H]1c1ccccc1` (relative stereo) [Example C-21, trans-N-(2,3-dihydro-1,4-benzodioxin-6-ylmethyl)-1-methyl-2-phenyl-cyclopropanamine 2,2,2-trifluoroacetic acid] fall in the same range of IC50: 0.1 to 1 µM for the first, 0.1 to 1 µM for the second.
